Experimental data: PubChem BioAssay AID1963984 (Molecular Pharmacology Branch, DTP, NCI, 2024)

Test system: 233499-124-R-J3-PDC spheroids with HUVEC/MSC, viability
Experiment: Anticancer human tumor 233499-124-R-J3-PDC patient-derived colon adenocarcinoma cell line growth inhibition [PI3K]
Details: for IC50: curve of first compound; for viability, T/C: stronger effect = lower value; active = viability on the fitted dose curve at most 10% of control; inactive = the rest
Source text: Combinatorial screen of targeted agents with the PI3K inhibitors inavolisib, alpelisib, duvelisib, and copanlisib in multi-cell type tumor spheroids
A high-throughput screen of multi-cell type tumor spheroids was designed to identify active combinations of targeted small molecules and PI3K pathway inhibitors. Complex spheroids include a stromal component modeled by human endothelial cells (HUVEC) and fibroblasts modeled by human mesenchymal stem cells (MSCs). The concentration ranges selected for each drug and investigational agent were based upon clinically achievable concentrations if the clinical Cmax of the agent was known.
Compounds. The drugs and investigational agents: inavolisib (NSC800729), alpelisib (NSC765974), duvelisib (NSC772469), copanlisib (NSC816437), ipatasertib (NSC767898), afuresertib (NSC778305), talazoparib (NSC767125), sapanisertib (NSC764658), selumetinib (NSC741078), tovorafenib (DAY101, NSC766906), vemurafenib (NSC761431), ravoxertinib (NSC781343), sotorasib (NSC818433), MRTX1133 (NSC 836407), abemaciclib (NSC 768073), palbociclib (NSC758247), venetoclax (NSC 766270), SY5609 (NSC837396), enzalutamide (NSC755605), and darolutamide (NSC825331), were obtained from the National Cancer Institute (NCI) Developmental Therapeutics Program Chemical Repository. The FDA-approved anticancer drug set is available from the NCI Developmental Therapeutics Program. […] The stock solutions were prepared in dimethyl sulfoxide (DMSO, Sigma-Aldrich, St. Louis, MO, cat. D2650) at 800-fold the tested concentration and stored at -70 degrees C prior to their use. All drugs and investigational agents were tested over a range starting from a high concentration at or near the clinical Cmax and decreasing in half-log increments. If the clinical Cmax for an agent had not been determined, the highest concentration tested was 10 microM.
Cell Culture. All cells were maintained in an incubator at 37 degrees C and 5% CO2 with 95% humidity. The PDC lines were cultured according to standard operating procedures established by the NCI PDMR (https://pdmr.cancer.gov/sops/default.htm). All PDCs were thawed and cultured in Matrigel-coated flasks prepared with a working solution of 1X Ham's F-12 nutrient mix, without supplementation (Invitrogen, Waltham, MA, cat. 11765054), 100 U/mL penicillin-streptomycin (Invitrogen, cat. 15140122), and 2.5% Matrigel (Corning Inc., Corning, NY, cat. 354248) for the first three passages. The 354836-022-R-J1-PDC, 475296-252-R-J1-PDC, and 997726-040-R-J2-PDC lines were cultured in 6A media, which includes advanced DMEM/F-12 (Thermo Fisher Scientific, cat. 12634028), 10 mM HEPES (Thermo Fisher Scientific, cat. 15630080), 1X GlutaMAX supplement (Thermo Fisher Scientific, cat. 35050061), 0.1 mg/mL primocin (InvivoGen, San Diego, CA, cat. ant-pm-2), 10% defined fetal bovine serum, heat inactivated (HyClone Laboratories Inc., Logan, UT, cat. SH30070.03HI), 50% L-WRN conditioned media (ATCC, cat. CRL-3276), 1.25 mM N-Acetyl-L-cysteine (Sigma-Aldrich, cat. A9165), 10 mM nicotinamide (Sigma-Aldrich, cat. N0636), 1X B-27 supplement (Thermo Fisher Scientific, cat. 17504044), 1X N-2 supplement (Thermo Fisher Scientific, cat. 17502048), and 10 microM Y-27632 dihydrochloride (Tocris Bioscience, Bristol, United Kingdom, cat. 1254). The 624824-186-R-J2-PDC line was cultured in 6C/Colon 1B media, which includes all 6A media components plus 50 ng/mL human EGF recombinant protein (Thermo Fisher Scientific, cat. PHG0311). […]

[1] = second compound 0.00316 µM, first compound 0.0316 µM
[2] = second compound 0.00316 µM, first compound 0.1 µM
[3] = second compound 0.00316 µM, first compound 0.316 µM
[4] = second compound 0.00316 µM, first compound 1 µM
[5] = second compound 0.00316 µM, first compound 3.16 µM
[6] = second compound 0.00316 µM, first compound 10 µM
[7] = second compound 0.01 µM, first compound 0.0316 µM
[8] = second compound 0.01 µM, first compound 0.1 µM
[9] = second compound 0.01 µM, first compound 0.316 µM
[10] = second compound 0.01 µM, first compound 1 µM
[11] = second compound 0.01 µM, first compound 3.16 µM
[12] = second compound 0.01 µM, first compound 10 µM
[13] = second compound 0.0316 µM, first compound 0.0316 µM
[14] = second compound 0.0316 µM, first compound 0.1 µM
[15] = second compound 0.0316 µM, first compound 0.316 µM
[16] = second compound 0.0316 µM, first compound 1 µM
[17] = second compound 0.0316 µM, first compound 3.16 µM
[18] = second compound 0.0316 µM, first compound 10 µM
[19] = second compound 0.1 µM, first compound 0.0316 µM
[20] = second compound 0.1 µM, first compound 0.1 µM
[21] = second compound 0.1 µM, first compound 0.316 µM
[22] = second compound 0.1 µM, first compound 1 µM
[23] = second compound 0.1 µM, first compound 3.16 µM
[24] = second compound 0.1 µM, first compound 10 µM
[25] = second compound 0.316 µM, first compound 0.0316 µM
[26] = second compound 0.316 µM, first compound 0.1 µM
[27] = second compound 0.316 µM, first compound 0.316 µM
[28] = second compound 0.316 µM, first compound 1 µM
[29] = second compound 0.316 µM, first compound 3.16 µM
[30] = second compound 0.316 µM, first compound 10 µM
[31] = second compound 1 µM, first compound 0.0316 µM
[32] = second compound 1 µM, first compound 0.1 µM
[33] = second compound 1 µM, first compound 0.316 µM
[34] = second compound 1 µM, first compound 1 µM
[35] = second compound 1 µM, first compound 3.16 µM
[36] = second compound 1 µM, first compound 10 µM
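Note: spheroids exposed to agents for seven days before readout.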
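Throughout, for viability, T/C: percent viability relative to DMSO vehicle control taken as 100%.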

CC1(C)CCC(CN2CCN(c3ccc(C(=O)NS(=O)(=O)c4ccc(NCC5CCOCC5)c([N+](=O)[O-])c4)c(Oc4cnc5[nH]ccc5c4)c3)CC2)=C(c2ccc(Cl)cc2)C1 + CC(Nc1ccc2c(c1)OCCn1cc(N3C(=O)OCC3C(F)F)nc1-2)C(N)=O
2.16 µM: IC50 (second compound 0.316 µM)
5.38 µM: IC50 (second compound 0.00316 µM)
active: viability, T/C [6] 3.01% | viability, T/C [12] 2.45% | viability, T/C [18] 3.53% | viability, T/C [24] 1.51% | viability, T/C [30] 4.28% | viability, T/C [36] 2.38%
3.2 µM: IC50 (second compound 1 µM)
4.85 µM: IC50 (second compound 0.1 µM)
4.86 µM: IC50 (second compound 0.0316 µM)
4.1 µM: IC50 (second compound 0.01 µM)
inactive: viability, T/C [1] 99.3% | viability, T/C [2] 94.1% | viability, T/C [3] 71.9% | viability, T/C [4] 109% | viability, T/C [5] 90.1% | viability, T/C [7] 86% | viability, T/C [8] 85.5% | viability, T/C [9] 96.3% | viability, T/C [10] 74.7% | viability, T/C [11] 65.7% | viability, T/C [13] 79.3% | viability, T/C [14] 66.2% | viability, T/C [15] 75.8% | viability, T/C [16] 73.6% | viability, T/C [17] 93.5% | viability, T/C [19] 60.9% | viability, T/C [20] 85.6% | viability, T/C [21] 86.5% | viability, T/C [22] 81% | viability, T/C [23] 78.8% | viability, T/C [25] 75.8% | viability, T/C [26] 69.3% | viability, T/C [27] 65.2% | viability, T/C [28] 77.2% | viability, T/C [29] 39.2% | viability, T/C [31] 66.8% | viability, T/C [32] 49% | viability, T/C [33] 47.4% | viability, T/C [34] 58.2% | viability, T/C [35] 50.1%

C[C@@H](NC(=O)c1ncnc(N)c1Cl)c1ncc(C(=O)Nc2cc(C(F)(F)F)c(Cl)cn2)s1 + CC(Nc1ccc2c(c1)OCCn1cc(N3C(=O)OCC3C(F)F)nc1-2)C(N)=O
inactive: viability, T/C [1] 102% | viability, T/C [2] 112% | viability, T/C [3] 113% | viability, T/C [4] 105% | viability, T/C [5] 126% | viability, T/C [6] 90.5% | viability, T/C [7] 113% | viability, T/C [8] 119% | viability, T/C [9] 130% | viability, T/C [10] 105% | viability, T/C [11] 111% | viability, T/C [12] 102% | viability, T/C [13] 99.4% | viability, T/C [14] 119% | viability, T/C [15] 109% | viability, T/C [16] 98.6% | viability, T/C [17] 113% | viability, T/C [18] 74.5% | viability, T/C [19] 87.2% | viability, T/C [20] 84.6% | viability, T/C [21] 108% | viability, T/C [22] 106% | viability, T/C [23] 102% | viability, T/C [24] 92% | viability, T/C [25] 82.8% | viability, T/C [26] 81.2% | viability, T/C [27] 85.6% | viability, T/C [28] 95.2% | viability, T/C [29] 102% | viability, T/C [30] 65.8% | viability, T/C [31] 53.5% | viability, T/C [32] 68.5% | viability, T/C [33] 52.5% | viability, T/C [34] 83% | viability, T/C [35] 77.2% | viability, T/C [36] 56.6%
> 10 µM: IC50 (second compound 0.00316 µM) | IC50 (second compound 0.01 µM) | IC50 (second compound 0.0316 µM) | IC50 (second compound 0.1 µM) | IC50 (second compound 0.316 µM) | IC50 (second compound 1 µM)
